Type in all cases: in vivo
Experiment [1] can be described thus: Weight gains of cattle (Example 14). As to the method: (§1) One half boluses (weight 25.5 to 27.0 g) and are administered to cattle on pasture. […] In this test pastured animals are randomly divided into groups of 5 animals per group and ear-tagged. The feces of all animals is examined prior to the tests in order to determine the average number of nematode eggs per gram of feces of the test animals. […] The test is begun with all animals receiving one half of a bolus weighing about 25 to 27 grams. […] The animals are then placed in individual paddocks and examined at intervals during the holding period up to 120 days. […]

Experiment [2] relates to Cooperia. The experiment in a line: Per cent control of nematodes in cattle (Example 14). The conditions noted are these: dewormed 57 days earlier. As to the method:
as §1

Experiment [3] concerns Haemonchus. The description is as above. The note with it: dewormed 57 days earlier. As to the method: as §1
In experiment [4] the test system is Oesophlogostonum. The experiment is described as above. The conditions noted are these: dewormed 57 days earlier. As to the method:
as §1

The test system of experiment [5] is Ostertagia. The experiment is described as above. The note with it: dewormed 57 days earlier. As to the method: as §1
For experiment [6], the system named is nematode eggs. The experiment in a line: Nematode eggs per gram of feces in pastured cattle (Example 14). As to the method: as §1

Take `c1ccc([C@H]2CN3CCSC3=N2)cc1` [Levamisole]: the figures for the “Average weight gains (Kg) from Day 0” value in experiment [1] (Day 7), in experiment [1] (Day 62) and in experiment [1] (Day 110) were 7 kg, 0 kg and 21 kg, respectively. In addition, in experiment [2], the “Avg. number worms Cooperia” value was 5937. The “Avg. number worms Haemonchus” value in experiment [3] is on record as 2325. Further, in experiment [4], the “Avg. number worms Oesophlogostonum” value is 117. The “Avg. number worms Ostertagia” value in experiment [5] came out at 729. In addition, the “Average number of nematode eggs per gram of feces” value in experiment [6] (Day 0 (before treatment)) is reported as “(2850)”; in experiment [6] (Day 7), 5; in experiment [6] (Day 62 (levamisole group re-treated on day 62)) it was 755; in experiment [6] (Day 119) it was 146. Moreover, in experiment [6] (Day 7), the “per cent in parentheses beside the egg count (reduction of nematode eggs)” value came to 99.9%.

Source of the values: EP0385106A1, “Sustained release bolus effective for the prolonged prevention, treatment or control of nematode, acarid and endo- and ectoparasitic infestations of ruminants” (AMERICAN CYANAMID COMPANY, priority 1989, dated 1990).
